Experimental data from patent US4925835A, “Aziridinyl putrescine containing compositions and their uses in treating prostate cancer” (priority 1987, dated 1990).

How the values were obtained:
[1] = Alkylating activity with 4-(p-nitrobenzyl)pyridine; conditions: 100 nmol in 5.0 ml, 0.1M acetate, PH 4.5, 37° C., 2 h
Protocol: The preparation of 1-(4-aminobutyl) aziridine from 1,4-diaminobutane (putrescine) was performed by the three-step synthetic method reported by Piper et al. supra.
1-(4-aminobutyl) aziridine (100 nmol) produced an absorbance increase of 0.7 with 4-(p-nitrobenzyl)pyridine in 5.0 ml when incubated in 0.1M acetate, PH 4.5, at 37° C. for 2 h. […] The retention times were: putrescine, 19.6 min; 1-(4-aminobutyl) aziridine, 21.1 min; and histamine, 21.8 min.

[2] = system: human prostate cancer cell line PC-3; assay: cells; format: cell-based
Protocol: Aziridinyl putrescine 1-(4-aminobutyl) aziridine was synthesized using the method as described by Piper, et al., J. Med. Chem. 12: 236-243 (1968). Cells of the human prostate cancer cell line PC-3 were used.
10^3 PC-3 human cells were plated in RPMI 1640 with 10% FCS/3 ml in 60 mm^2 petri dishes. The cell plates were incubated either with, or without difluoromethylornithine for 48 hours. This was followed by aspiration, and replacement with a medium containing either no additives, 50 uM 1-(4-aminobutyl) aziridine, 1 mM putrescine, or both 50 uM 1-(4-aminobutyl) aziridine and 1 mM putrescine. The media were aspirated after 1 hour, and replaced with a drug free medium. Incubation continued for 5 days.
*Represents mean number of colonies ± one standard deviation of
triplicate assay. Number in parenthesis is percent of control.

[3] = system: uptake of [14C]putrescine into PC-3 cells; format: cell-based, human; conditions: PC-3 cells
Protocol: FIG. 1. Lineweaver-Burk plot of the uptake of [^14 C]putrescine by DFMO-pretreated cells. The ordinate is expressed as 1/pmol/15 min. The abscissa is expressed as 1 μM concentrations containing from 16 to 1.0 μM [^14 C]putrescine.
Fifty thousand PC-3 cells were plated in 12-well plates and 18 h later the incubation medium was removed and replaced with 1 ml or RPMI 1640 medium containing 25 mM 4-(2-hydroxyethyl)-1-piperazineethansulfonic acid buffer, 100 μM aminoguanidine, and 10% FCS. Forty-eight h later the medium was replaced with medium which contained [^14 C]putrescine in concentrations ranging from 16 to 1.0 μM with or without 5 1M 1-(4-aminobutyl) aziridine. Following incubation at 37° C. for 15 min the [^14 C]putrescine-containing medium was aspirated, and the cells were rinsed rapidly 4 times with HBSS. Following the last rinse, 1.0 ml of a solution of 0.1N NaOH was added and after a 2-h incubation at room temperature a 0.2-ml aliquot was added to 1 ml of 2% glacial acidic acid and 10 ml of Scintiverse 1 scintillation cocktail and the radioactive disintegrations were determined with a Packard Tri-Carb 300 scintillation spectrophotometer. Counting efficiency for ^14 C was 80%. Kinetic analysis of uptake was performed by graphic methods as described by Dixon and Webb, Enzymes, p. 322, New York Academic Press (1959).
In FIG. 1 a Lineweaver-Burk plot of the uptake of [^14 C]-putrescine into the PC-3 cells is presented and was used to determine the Km (intercept x axis) and Vmax (intercept y axis) for putrescine.

PC-3 cells = assay: Polyamine assays: intracellular polyamine levels by HPLC; format: cell-based, human
Protocol: One h later the medium was aspirated and the cells were rinsed with cold HBSS. Three plates were treated with dilute trypsin to release the cells from the plate and provide a single cell suspension. The viability of the cells and the number of cells per plate were determined by trypan blue exclusion and counting with the aid of a hemocytometer. […] The other three plates were extracted with 0.4N perchloric acid and the polyamines were measured by fluorescence following postcolumn derivatization with o-phthalaldehyde following separation by the reverse phase ion-pair high performance liquid chromatography procedure of Wagner et al., J. Chomatogr., 227: 349-368, 1982.
In Table 2 are listed the values for the triplicate assays of the concentrations of polyamine observed in nontreated cells, cells treated with 1-(4-aminobutyl) aziridine for 1 h, cells pretreated for 48 h with 1 mM difluoromethylornithine and then incubated in drug free medium for 1 h, or cells pretreated for 48 h with difluoromethylornithine, rinsed free of difluoromethylornithine, and then incubated with 25 μM 1-(4-aminobutyl)aziridine for 1 h. All groups had cell viabilities greater than 95% and cell numbers were 4.9±0.6 (SE), 4.9±0.7, 4.8±0.4, and 4.6±0.4×10^6 cells for the control, 1-(4-aminobutyl) aziridine, difluoromethylornithine, and difluoromethylornithine+1-(4-aminobutyl) aziridine groups, respectively. The apparent amount of 1-(4-aminobutyl) aziridine in the difluoromethylornithine-treated cells was 3.7 times that of the 1-(4-aminobutyl) aziridine-only-treated cells. No N^8 -acetylspermidine, acetylputrescine, or cadaverine was detected in any group. A peak was detected at a wavelength of 254 nm in the difluoromethylornithine treatment groups that corresponds to the retention time of decarboxylated S-adenosylmethionine.
^a PC-3 cells were incubated with or without 1 mM DFMO for 48 h. Cell
were then rinsed free of DFMO and incubated for 1 h with 25 μM AZP. Th
cells were washed free of AZP by three rinses of HBSS. With one set of
triplicate plates, the cells were resuspended and counted by hemocytomete
and viability was determined by trypan dye exclusion (viability > 95%).
Another set triplicate plates was extracted with icecold perchloric acid
and filtered and the polyamine concentrations were determined by HPLC.
^b Mean ± SE for a triplicate assay. Histamine is included as a […]

[4] = PC-3, ±1 mM DFMO 48 h, then ±25 μM AZP 1 h, mean ± SE

NCCCCN1CC1 [AZP, 1-(4-aminobutyl) aziridine]
Absorbance increase with 4-(p-nitrobenzyl)pyridine (alkylating activity) [1]: 0.7 | activity at 50 µM ([2]; Homo sapiens, PC-3, read-out: Clonogenic survivors, percent of control): 36% | inhibition at 50 µM ([2]; Homo sapiens, PC-3, read-out: Inhibition of proliferation of human prostate cancer cells in culture, AZP at 50 uM, from Table 1): ~64% | Clonogenic survivors (mean number of colonies ± one standard deviation) ([2]; PC-3, 48 h with or without DFMO, then 1 h with 50 uM AZP and/or 1 mM putrescine, 5 days drug free): 210 ± 30 colonies | Type of inhibition of putrescine uptake [3]: consistent with competitive inhibition | Ki ([3]; with or without difluoromethylornithine pretreatment, 5 1M AZP, read-out: Apparent Ki for inhibition of putrescine uptake): 1000 nM | Apparent amount of AZP in DFMO-treated cells relative to AZP-only-treated cells (PC-3 cells; 25 μM AZP 1 h, 1 mM DFMO 48 h pretreatment): 3.7 times | Polyamine levels: AZP (PC-3 cells; PC-3, ±1 mM DFMO 48 h, then 25 μM AZP 1 h, mean ± SE): 115 ± 32 pmol/10^6 | Cell numbers at end of treatment (PC-3 cells; PC-3, ±1 mM DFMO 48 h, then ±25 μM AZP 1 h, SE): 4.9±0.7 ×10^6 cells | Polyamine levels: Hist (histamine, nonpolyamine control) (PC-3 cells; [4]): 86 ± 25 pmol/10^6 | Polyamine levels: NaSpm (N-acetylspermine) (PC-3 cells; [4]): 125 ± 28 pmol/10^6 | Polyamine levels: PUT (putrescine) (PC-3 cells; [4]): 2520 ± 170 pmol/10^6 | Polyamine levels: Spd (spermidine) (PC-3 cells; [4]): 2884 ± 100 pmol/10^6 | Polyamine levels: Spm (spermine) (PC-3 cells; [4]): 3604 ± 323 pmol/10^6
